In patent publication US8039670B2, “Analogs of alpha galactosyceramide and uses thereof” (Ludwig Institute for Cancer Research, priority 2005, dated 2011):

How the values were obtained:
[1] = tested on: OVA specific IgG antibodies; test: Example D: OVA specific IgG antibodies in serum of immunized mice (ELISA); type: in vivo; settings: ten days following immunization
Method: OVA protein coated ELISA plates, were prepared, using well known methods. Then, blood samples were taken, ten days following immunization, and serum was prepared.
The samples were taken from mice that had been immunized with OVA only, OVA and Compound 1, arabinitol ceramide, OVA and αGal-Cer, or OVA and Compound 2, glycerol ceramide. Additionally, mice were immunized with each of these schedules with MPL added. Serum IgG titers were measured by adding serial dilutions of mouse serum were detected using horseradish peroxidase (HRP) conjugated α-mouse IgG.

[2] = tested on: IFN-γ from the iNKT cells; test: IFN-γ ELISA of supernatants of DC/iNKT co-cultures; type: cell-based, human; settings: analogs presented by DC
Method: (§1) Different analogs of α-GalCer as indicated or LPS were added to co-cultures of human DC and iNKT cells. (A) Maturation of the DC was assessed after 40 h, gating on CD11c positive cells. Histograms indicate the CD83 and CD86 profiles of DC from different treatments; the percentages indicate the percentage of CD83hi mature DC and the numbers in parenthesis, the mean fluorescence intensity of the population contained within the labeled gate. DC and iNKT cells were co-cultured in the presence of different analogs of α-GalCer for 24 hours. Supernatants were analyzed using ELISA for the presence of (B) IL-12p40 released by the DC and (C) IFN-γ from the iNKT cells. […] Cells were co-cultured in the presence of the indicated concentration of analog and the percentages of DC with increased CD83/CD80 are shown. […] Viability of α-GalCer or analog-pulsed DC was assessed after 40 h co-culture in the presence of iNKT cells by flow cytometry. Cells were stained with propidium iodide and the percentage of live CD11c gated cells remaining in the culture are shown.
(§2) Human monocyte-derived DC were pulsed with 150 ng of different inositol analogs and co-cultured with iNKT cells for 24 h. […] Numbers indicate the mean fluorescence intensity of the histogram gated on CD11c^+ cells.

[3] = tested on: IL-12p40 released by the DC; test: IL-12p40 ELISA of supernatants of DC/iNKT co-cultures; type: cell-based, human; settings: DC/iNKT co-culture, 24 hours
Method: as §1, §2
Release of IL-12p40 (and bioactive p75) by DC is a marker of activation and is thought to play an important role in regulating the profile of the immune response generated in response to those DC (Trinchieri et al, Nat Rev Immunol, 2003, 3; 133-46).

[4] = tested on: antigen-specific CD8^+ T cells; test: OVA-specific CD8+ T cells after co-injection with OVA ([…]-Kb tetramer); type: in vivo, C57BL/6 mice; settings: 1 μg with 800 μg OVA, 6 days
Method: (§3) (A) C57BL/6 mice were co-injected with 1 μg α-GalCer or analog and 800 μg OVA. 6 days later blood samples taken from the tail vein were stained directly ex vivo with fluorescent […]-K^b tetramers and an anti-CD8 antibody and analyzed by flow cytometry. Data are shown as tetramer positive cells as a percentage of CD8^+ cells. (B) 7 days after injection, the mice were challenged in a prophylactic setting with 1×10^6 E.G7-OVA tumour cells s.c. and the size of the tumour monitored over subsequent days.
Previously we, and others have shown that co-injection of model antigens such as OVA (Silk, Hermans et al, J Clin Invest, 2004, 114; 1800-11, Fujii, Shimizu et al, J Exp Med, 2003, 198; 267-79, Hermans, Silk et al, J Immunol, 2003, 171; 5140-7) and β-galactosidase (Silk, Hermans et al, J Clin Invest, 2004, 114; 1800-11) together with α-GalCer induces enhanced CD8^+, CD4^+ T cell and B cell responses. These were effective for therapy against tumour cells expressing the target antigen. The various analogs were co-injected with OVA into wild type mice and 6 days later the blood examined for the presence of antigen-specific CD8^+ T cells using fluorescent K^b-[…] tetramers.

[5] = tested on: DCs obtained from the spleen; test: Example E: phenotyping of spleen DCs after tail vein injection (CD86); type: in vivo, mice; settings: 1 μg tail vein, 24 h
Method: In brief, in each experiment, 1 μg of one of a selection of compounds of the invention was injected into the tail vein of subject mice. 24 h later spleen tissue was removed from the animals and gently teased through gauze into complete medium, supplemented with 5 mM of EDTA. Cells were enriched for CD11c by anti-CD11, magnetic beads using published techniques. Once enriched, they were assayed for maturation markers using antibody staining and flow cytometry. Non-specific staining was addressed by using an antibody specific for the Fc-RIII/II receptor.

[6] = tested on: OVA specific response; test: Example C: OVA specific CTL response in mice injected with OVA and compound (tetramer); type: in vivo; settings: for OVA specific response: 400 μg OVA with 1 μg compound i.v.; for CTL response with MPL coinjected: coinjected with 25 μg MPL
Method: Subject animals, five mice per group, received an intravenous injection of 400 μg of ovalbumin (OVA) together with 1 μg of one of the compounds of the invention under examination or an equivalent volume of PBS diluted vehicle solution. A subset of mice were injected with 25 μg of the molecule MPL (Sigma-Aldrich; extracted from Salmonella Minnesota) solubilized in PBS.
Following the injections, blood was obtained from lateral tail veins, and PBLs were isolated, using standard methods. The PBLs were then stained, directly, […], with tetrameric, H-2 Kb/OVA 257-264, H-21 Kb complexes, following Palmowski, et al., J. Immunol., 168:4391-4398 (2002), incorporated by reference. The tetramers were prepared in accordance with Whilan, et al., J. Immunol., 163:4342-4348 (1999), incorporated by reference.

[7] = tested on: human monocyte derived DCs; test: Example A: DC maturation markers in human monocyte derived DC with NKT cells (FACS); type: cell-based; settings: 100 ng/ml, 36 hours, 10 DC/NKT cell
Method: The methodology of Salio, et al., J. Immunol., 167:1188-1197 (2001), incorporated by reference, was followed. In brief, 2×105 human monocyte derived DCs were pulsed with 100 ng/ml of one of Compounds 2, 3, αGal-Cer, or vehicle solution, as a control. For DC pulsing, each of arabinitol ceramide (Compound 1), threitol ceramide (Compound 3), glycerol ceramide (Compound 2) and αGal-Cer was solubilized in vehicle solution (0.5% Tween 20/PBS), and added to the medium of the DC cultures. […] After 36 hours, supernatant was removed from cultures and analyzed for the presence of known DC maturation markers CD83, CD80, CD86, CD25, and CD38, all of which were analyzed via FACS, using well known methods.

[8] = tested on: human DC; test: DC maturation in co-culture of human DC and iNKT cells (flow cytometry CD83, CD86, CD38); type: cell-based; settings: for DC maturation (upregulation of CD83, CD86 and CD38): human DC with iNKT cell clone, 24 hours; for concentration inducing maximal DC maturation: titration on DC, 48 h
Method: as §1, §2
Immature human DC were cultured in the presence of a human iNKT cell clone with or without analogs or vehicle at different concentrations.
To compare the functions of high affinity α-GalCer, intermediate affinity threitolceramide with the known, low affinity analog OCH, the three compounds were titrated onto DC and used to present to iNKT cells. Maturation of DC and DC viability were examined after 48 h.

[9] = tested on: E.G7-OVA tumour cells; test: Prophylactic challenge with E.G7-OVA tumour cells after co-injection with OVA; type: in vivo, C57BL/6 mice; settings: injected with OVA, challenge 7 days later with 1×10^6 E.G7-OVA s.c.
Method: as §3

CCCCCCCCCCCCCCCCCCCCCCCCCC(=O)N[C@@H](COC[C@@H](O)CO)[C@H](O)[C@H](O)CCCCCCCCCCCCCC [Compound 2, Glycerol Ceramide]
OVA specific antibody response, adjuvant effect compared with MPL [1]: less effective than MPL whilst still producing OVA specific antibodies
IFN-γ released by the iNKT cells [2]: ~20 ng/mL
IL-12p40 level relative to that seen with α-GalCer [3]: approximately 50%
antigen-specific CD8+ T cell response [4]: did not
induction of CD86 on spleen DC in vivo [5]: induced CD86 in vivo similarly
OVA specific response [6]: Enhancement was weakest
induction of DC maturation markers (CD83, CD80, CD86, CD25, CD38) [7]: DC maturation markers are induced

CCCCCCCCCCCCCCCCCCCCCCCCCC(=O)N[C@@H](COC[C@H](O)[C@@H](O)CO)[C@H](O)[C@H](O)CCCCCCCCCCCCCC [Compound 3, Threitol Ceramide]
IFN-γ released by the iNKT cells [2]: ~20 ng/mL
DC maturation (upregulation of CD83, CD86 and CD38) [8]: more potent than glycerolceramide and arabinitolceramide
concentration inducing maximal DC maturation [8]: 67 ng/mL
IL-12p40 level relative to that seen with α-GalCer [3]: approximately 50%
antigen-specific CD8+ T cell response [4]: induced a significant CD8^+ T cell response after 6 days, although less potently than α-GalCer
induction of CD86 on spleen DC in vivo [5]: did not induce the DC86 marker significantly
tumour growth [9]: little or no tumour growth
OVA specific response [6]: enhancement of the OVA specific response
CTL response with MPL coinjected [6]: enhancement of the CTL response
induction of DC maturation markers (CD83, CD80, CD86, CD25, CD38) [7]: DC maturation markers are induced

CCCCCCCCCCCCCCCCCCCCCCCCCC(=O)N[C@@H](CO[C@H]1OC(CO)[C@H](O)C(O)C1O)[C@H](O)[C@H](O)CCCCCCCCCCCCCC (stereo partly drawn) [α-GalCer, α galactosylceramide, reference compound]
OVA specific antibody response, adjuvant effect compared with MPL [1]: more effective as adjuvants than MPL
IFN-γ released by the iNKT cells [2]: approximately 40 ng/ml
DC maturation (upregulation of CD83, CD86 and CD38) [8]: significant upregulation of all the markers examined
concentration inducing maximal DC maturation [8]: 0.8 ng/mL
IL-12p40 released [3]: significant levels of IL-12p40
induction of CD86 on spleen DC in vivo [5]: induced CD86 in vivo similarly
tumour growth [9]: little or no tumour growth
OVA specific response [6]: enhancement of the OVA specific response
CTL response with MPL coinjected [6]: enhancement of the CTL response
